Source: patent publication US20240400572A1, “COMPOUNDS AND METHODS FOR TREATING CANCERS THAT ARE MGMT DEFICIENT REGARDLESS OF MMR STATUS” (Yale University, priority 2021, published 2024)
Entries after “also recorded” stand apart in the source; their conditions may differ.

What was measured:
[1] = system: LN229 MGMT−/MMR+ and MGMT−/MMR− cells; experiment: IR alkaline comet assay; assay type: cell-based, human; conditions: for effect on IR-induced comet tail, ICL detection (in words) / comet tailing in the absence of IR (in words): MGMT−/MMR+ cells; for effect on IR-induced comet tail, ICL detection (in words): 200 μM for 24 h; for effect on IR-induced comet tail, ICL detection (in words) / rate of ICL formation, DNA mobility after IR (in words): 10 Gy; for comet tailing in the absence of IR (in words): TMZ and KL-50 200 μM, MMC 0.1 or 50 μM; for DNA damage in unirradiated samples (in words) / rate of ICL formation, DNA mobility after IR (in words): MGMT−/MMR− cells, 200 μM, 2, 8 or 24 h; for DNA damage in unirradiated samples (in words): 0 Gy
Description: IR Alkaline Comet Assay. Assay was performed utilizing the CometAssay Kit (Trevigen) according to the alkaline assay protocol, with the addition of slide irradiation post-lysis. Cells were trypsinized, washed with 1×PBS, added to melted Comet LMAgarose (Trevigen), and spread on Trevigen CometSlides at a density of 1000 cells per sample in 50 μL. Lysis solution (Trevigen) with 10% DMSO was added overnight at 4° C. Slides were removed from lysis buffer and irradiated to 0 or 10 Gy using an XRAD 320 X-Ray System (Precision X-Ray) at 320 kV, 12.5 mA, and 50.0 cm SSD, with a 2 mm Al filter and 20 cm×20 cm collimator. Slides were then placed in alkaline buffer (200 mM NaOH, 1 mM EDTA) for 45 min, followed by electrophoresis in 850 mL alkaline buffer for 45 min at 4° C. Slides were washed and stained with SYBR gold (Invitrogen) per Trevigen assay protocol. Slides were imaged on a Cytation 3 imaging reader (BioTek), and comets were analyzed using CometScore 2.0 software (TriTek).
We used a well-established comet assay adapted for ICL detection to determine if ICLs were formed in MGMT− cells treated with KL-50 (4a) (FIG. Z3, A and B). In this assay, cells were sequentially exposed to genotoxins and ionizing radiation, and then analyzed by single cell alkaline gel electrophoresis. Attenuation of the IR-induced comet tail is indicative of ICL formation.

[2] = system: LN229 MGMT+/−, MMR+/− cells; experiment: Micronuclei analysis; assay type: cell-based, human; conditions: 20 μM, 48 h
Excerpt: Micronuclei Analysis. An automated image analysis pipeline was developed by YCMD using InCell Analyzer software to quantify micronuclei formation. Nuclei and micronuclei were segmented based on Hoechst nucleic acid dye staining channel. A perinuclear margin was applied around the nuclei to approximate the extent of the cytoplasm and identify micronuclei associated with the parent nucleus. Cells with nuclei associated with at least 1 micronucleus were considered positive.

[3] = system: O^6-guanine adducts in cellular DNA; conditions: dose of 20 μM; cited from earlier work
[4] = system: LN229 MGMT+/−, MMR+/− isogenic lines; experiment: Short-term cell viability assay with ROS scavenger NAC; assay type: cell-based, human; conditions: pre-treated with increasing concentrations of NAC
Description: FIGS. ZS5A-ZS5D. […] Columns, mean; error bars, SD; n=2 independent analyses. For (FIG. ZS5A) and (FIG. ZS5C), points, mean; error bars, SD; n=3 technical replicates.
(§1) Short-term Cell Viability Assay. Cells were seeded in 96-well plates at 1000 or 2000 cells/well and allowed to adhere at 23° C. for 60 min and then incubated overnight at 37° C. Cells were treated with indicated concentrations of compounds in triplicate for 4-6 days prior to fixation with 3.7% paraformaldehyde and nuclear staining with 1 μg/mL Hoechst 33342 dye. Cells were imaged on a Cytation 3 imaging reader (BioTek) and quantified using CellProfiler software.

[5] = system: PEO4 (BRCA2+) and PEO1 (BRCA2−/−) cells; experiment: Short-term cell viability assay in PEO1/4 model; assay type: cell-based, human
Description: FIGS. Z4A-Z4I. KL-50 (4a) activates DNA damage response pathways and cycle arrest in MGMT− cells, independent of MMR, and induces sensitivity in cells deficient in ICL or HR repair. (FIGS. Z4A, Z4B, and Z4C) Phospho-SER139-H2AX (γH2AX) (A), 53BP1 (FIG. Z4B), and phospo-SER33-RPA2 (pRPA) (FIG. Z4C) foci formation quantified by % cells with 10 foci in LN229 MGMT+/−, MMR+/− cells treated with 0.1% DMSO control, 20 μM KL-50 (4a), or 20 μM TMZ (1a) for 48 h. Columns, mean; error bars, SD; n≥5 technical replicates. Additional time course data is presented in FIG. ZS6B to D. (FIG. Z4D) Representative foci images of data in (FIG. Z4A) to (FIG. Z4C). (FIG. Z4E) Percentage of cells in G1, S, and G2 cell cycle phases after treatment as in (A) to (C), measured using integrated nuclear (Hoechst) staining intensity. Columns, mean; error bars, SD; n=3 independent analyses. (FIG. Z4F) Change in percent cells with 1 micronuclei from baseline (DMSO control) after treatment as in (FIG. Z4A) to (FIG. Z4C). Columns, mean; error bars, SD; […] technical replicates; **** p<0.0001; ns, not significant. Additional validation is presented in FIG. ZS9, A and B. (FIG. Z4G) Short-term viability assay curves for KL-50 (4a) in PD20 cells, deficient in FANCD2 (FANCD2−/−) or complemented with FANCD2 (+FANCD2). (FIG. Z4H) Short-term viability assay curves for KL-50 (4a) in PEO4 (BRCA2+) and PEO1 (BRCA2−/−) cells pre-treated with 0.01% DMSO control or 10 μM O^6BG (+O^6BG) for 1 h prior to KL-50 (4a) addition. (FIG. Z4I) Short-term viability assay curves for KL-50 (4a) in DLD1 BRCA2+/− and BRCA2−/− cells pre-treated with 0.01% DMSO control or 10 μM O^6BG (+O^6BG) for 1 h prior to KL-50 (4a) addition. For (FIG. Z4G), (FIG. Z4H), and (FIG. Z4I), points, mean; error bars, SD; n=3 technical replicates.
as §1

With `Cn1nnc2c(C(N)=O)ncn2c1=O` [TMZ, temozolomide, reference compound] the “effect on IR-induced comet tail, ICL detection (in words)” value [1] was “did not reduce DNA migration following IR”, the “comet tailing in the absence of IR (in words)” value [1] was “induced tailing” and the “DNA damage in unirradiated samples (in words)” value [1] was “induced maximal damage at 2 h, which decreased over time”. For the same compound, the “rate of ICL formation, DNA mobility after IR (in words)” value [1] was “did not induce a statistically significant decrease in DNA migration within 24 h”, the “micronuclei formation (in words)” value [2] was “smaller increases in G1-phase foci and micronuclei formation at 48 h in MGMT−/MMR+ cells; also recorded: did not observe foci induction or micronuclei formation in MGMT−/MMR− cells” and the “O^6MeG (3) adducts per cell” value [3] was 20,600.
For `NC(=O)c1ncn2c(=O)n(CCF)nnc12` [KL-50, 3-(2-fluoroethyl)-4-oxo-3H,4H-imidazo[4,3-d][1,2,3,5]tetrazine-8-carboxamide], the “effect on IR-induced comet tail, ICL detection (in words)” value [1] was “reduced the % DNA in the tail to levels similar to those seen for 0.1 μM MMC”, the “comet tailing in the absence of IR (in words)” value [1] was “induced tailing” and the “DNA damage in unirradiated samples (in words)” value [1] was “induced maximal damage at 2 h, which decreased over time”. The “rate of ICL formation, DNA mobility after IR (in words)” value [1] was “time-dependent decrease in DNA mobility”, the “rescue of toxicity by NAC (in words)” value [4] was “did not result in rescue” and the “micronuclei formation (in words)” value [2] was “significant increase in micronuclei was observed at 48 h”. The “therapeutic index (TI)” value ([5]; PEO1/4 model, ratio of IC50 values) was 62 fold and the “sensitivity of BRCA2-deficient cells (in words)” value ([5]; PEO1 versus PEO4, ± 10 μM O^6BG) was “BRCA2 loss enhanced the toxicity”.
